{
  "source": "paper PMC3356383",
  "about": "“Efficacious Intermittent Dosing of a Novel JAK2 Inhibitor in Mouse Models of Polycythemia Vera” (PLoS ONE, 2012)",
  "key": {"spleen cell populations": {"test_system": "spleen cell populations", "experiment": "Cell populations in spleen of normal mice", "type": "in vivo", "conditions": "54 mpk; for Spleen B-Cells B220+ / Spleen Cell Count / Spleen Myeloid Gr-1+ CD11b+ / Spleen NK-Cells NK1.1+ NKG2D+ / Spleen T-Cells CD4+ / Spleen T-Cells CD8+ / Spleen T-Cells Tregs CD25+CD127^lo / Spleen Weight / Spleen B-Cells MZ-B-cells CD21^hiCD23^lo: normal mice", "protocol": "Cells were stained in PBS, 0.5% BSA with antibodies for 15 min on ice. Stained cells were acquired on a 4-laser LSR-II (BD Biosciences) and data analyzed using FlowJo software (Treestar). Dead cells were labeled with the blue fluorescent LIVE/DEAD reactive dye (Invitrogen) and excluded from the analysis.\nMonoclonal antibodies (anti-mouse): CD3, CD4, CD5, CD8, CD11b, CD19, CD21/35, CD23, CD25, CD43, CD44, CD49b, CD69, CD71, CD93, CD117, B220, GR-1, IgD, NK1.1, NKG2A/C/E, NKG2D, Ter119 were purchased from BD Biosciences; CD4, CD8, CD49b, CD62L, TCRβ, TCRγδ from eBioscience; GR-1 from Invitrogen; CD43 from Miltenyi Biotec. Goat anti-mouse IgM-FITC, (μ chain specific) from Jackson Immuno Research.\nJAK2 and its family members JAK1 and JAK3 are known to signal downstream of cytokines that play essential roles in the development of lymphoid cell populations. To examine more thoroughly the effects of JAK2 inhibition on lymphoid cells, we analyzed wild-type (C57BL/6) mice treated with 54 mpk MRLB-11055 for 3 days, 6 days or up to 5 cycles of 3 days (“on”) followed by a 4 day holiday (“off”).\nSupplementary file pone.0037207.s004.doc: Table S2 Effect of MRLB-11055 on Cell Populations in Spleen of Normal Mice. Cell counts measured by Advia. Cycles refer to 3 days of treatment followed by a 4 day holiday. *p<0.05 in Student T test when comparing vehicle 5 cycle with treatment 5 cycle and vehicle 2 cycle with treatment 2 cycle, resp. (DOC) Click here for additional data file."}, "Arg": {"test_system": "Arg", "experiment": "Kinase profiling (Millipore)", "type": "biochemical", "conditions": "IC50s measured at ATP Km, fold increase relative to JAK2", "protocol": "(§1) Kinase profiling was conducted by Millipore (Billerica, MA).\nSupplementary file pone.0037207.s003.doc: Table S1 Recombinant Kinase Selectivity Profile of MRLB-11055. IC50s measured at ATP Km, and fold increase relative to JAK2 is reported. (DOC) Click here for additional data file."}, "BaF3 (JAK2 WT) cells": {"test_system": "BaF3 (JAK2 WT) cells", "experiment": "Cell apoptosis, ApoDirect assay", "type": "cell-based", "conditions": "Mus musculus, 24 hour, EPO-stimulated, ApoDirect measurement of fragmented DNA, read-out: Cell apoptosis, BaF3 (JAK2 WT) (values shown are EC50)", "protocol": "(§2) Cell survival was measured by ApoDirect (BD Biosciences) assay as follows. BaF3 cells were grown at 37°C, 5% CO2, and aliquots (2 × 10^6) were treated with inhibitor (various concentration dissolved in DMSO) for 24 hours and then fixed and stained as per manufacturer protocol."}, "BaF3 (JAK2 V617F) cells": {"test_system": "BaF3 (JAK2 V617F) cells", "experiment": "Cell apoptosis, ApoDirect assay", "type": "cell-based", "conditions": "Mus musculus, 24 hour, ApoDirect measurement of fragmented DNA, read-out: Cell apoptosis, BaF3 (JAK2 V617F) (values shown are EC50)", "protocol": "as §2"}, "JAK2 (JH1) WT": {"target": "T1, JAK2 (JH1) WT (Homo sapiens, UniProt O60674)", "T1 construct": "JAK2, 25 pM enzyme (JH1, JH1–JH2^wt, JH1–JH2^V617F domains)", "T1 sequence (O60674 849-1124 limits assumed)": "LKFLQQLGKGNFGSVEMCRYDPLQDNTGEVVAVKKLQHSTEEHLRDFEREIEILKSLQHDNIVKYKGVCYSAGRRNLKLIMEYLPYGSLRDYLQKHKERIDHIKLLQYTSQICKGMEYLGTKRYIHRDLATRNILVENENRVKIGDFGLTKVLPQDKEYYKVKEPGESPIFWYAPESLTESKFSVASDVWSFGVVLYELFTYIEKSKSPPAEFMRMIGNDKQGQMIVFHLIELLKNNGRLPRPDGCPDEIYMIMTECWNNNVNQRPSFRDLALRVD", "experiment": "JAK2 enzyme assay, HTRF detection", "type": "biochemical", "protocol": "(§3) JAK1, JAK2, JAK3, and TYK2 kinase activity assays were performed as described previously using HTRF detection technology and the peptide substrate amino hexanoyl biotin-EQEDEPEGDYFEWLE-NH2. Each reaction was incubated between 60 and 80 min at room temperature. Final conditions were as follows: JAK1, 400 pM enzyme, Hepes pH 7.5, 10 mM MgCl2, 0.01% Brij-35, 1 mM EGTA, 0.1 mg/ml BSA), 2 mM DTT, 2 µM peptide substrate, 25 µM MgATP, 5% DMSO and the desired concentration of subject compound; JAK2, 25 pM enzyme (JH1, JH1–JH2^wt, JH1–JH2^V617F domains), 2 µM peptide substrate, 15 µM MgATP, 5 mM MgCl2, 100 mM NaCl, 2 mM DTT, 0.1 mg/ml BSA, 50 mM Tris (pH 7.4), 5% DMSO and the desired concentration of subject compound; JAK3, 250 pM enzyme, 50 mM Hepes pH 7.5, 10 mM MgCl2, 0.01% Brij-35, 1 mM EGTA, 0.1 mg/ml BSA), 2 mM DTT, 2.0 µM peptide substrate, 25 µM MgATP, 5% DMSO, and the desired concentration of subject compound; TYK2, 125 pM enzyme, 50 mM Hepes pH 7.5, 10 mM MgCl2, 0.01% Brij-35, 1 mM EGTA, 0.1 mg/ml BSA, 2 mM DTT, 2.0 µM peptide substrate, 15 µM MgATP, 5% DMSO and the desired concentration of subject compound."}, "JAK2 (JH1–JH2) WT": {"target": "T2, JAK2 (JH1–JH2) WT (Homo sapiens, UniProt O60674)", "T2 construct": "JAK2, 25 pM enzyme (JH1, JH1–JH2^wt, JH1–JH2^V617F domains)", "T2 sequence (O60674 532-1132 limits assumed)": "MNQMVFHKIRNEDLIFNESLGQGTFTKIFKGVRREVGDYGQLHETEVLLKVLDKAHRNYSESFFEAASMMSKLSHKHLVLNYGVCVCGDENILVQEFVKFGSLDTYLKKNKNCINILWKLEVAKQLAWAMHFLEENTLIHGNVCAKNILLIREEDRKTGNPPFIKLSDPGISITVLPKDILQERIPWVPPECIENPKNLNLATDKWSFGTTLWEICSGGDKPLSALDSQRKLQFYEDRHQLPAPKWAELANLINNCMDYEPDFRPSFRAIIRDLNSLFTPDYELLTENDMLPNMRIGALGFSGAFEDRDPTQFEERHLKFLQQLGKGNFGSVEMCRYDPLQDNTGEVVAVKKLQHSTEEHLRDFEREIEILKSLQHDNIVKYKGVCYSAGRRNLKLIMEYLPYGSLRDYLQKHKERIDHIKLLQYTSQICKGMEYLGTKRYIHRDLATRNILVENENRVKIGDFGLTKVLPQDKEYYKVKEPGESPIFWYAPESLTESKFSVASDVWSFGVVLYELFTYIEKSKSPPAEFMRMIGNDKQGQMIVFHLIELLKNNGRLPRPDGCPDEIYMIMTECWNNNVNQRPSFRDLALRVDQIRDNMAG", "experiment": "JAK2 enzyme assay, HTRF detection", "type": "biochemical", "conditions": "kinase activity, mean, n = 3, read-out: IC50, cell-free JAK2 (JH1–JH2) WT", "protocol": "as §3"}, "JAK2 (JH1–JH2) V617F": {"target": "T3, JAK2 (JH1–JH2) V617F (Homo sapiens, UniProt O60674, V617F)", "T3 construct": "JAK2, 25 pM enzyme (JH1, JH1–JH2^wt, JH1–JH2^V617F domains)", "T3 sequence (O60674 532-1132 V617F limits assumed)": "as the sequence (O60674 532-1132 limits assumed) above, with V86F counted along it", "experiment": "JAK2 enzyme assay, HTRF detection", "type": "biochemical", "conditions": "kinase activity, mean, n = 3, read-out: IC50, cell-free JAK2 (JH1–JH2) V617F", "protocol": "as §3"}, "220 recombinant kinases": {"test_system": "220 recombinant kinases", "experiment": "Kinase profiling (Millipore), whole panel", "type": "biochemical", "conditions": "198 of 220 tested kinases; based on JAK2 (JH1-JH2) IC50", "protocol": "as §1"}, "[1]": {"conditions": "6 days of continuous treatment, wild-type C57BL/6 mice"}, "[2]": {"conditions": "2 cycles (3 days treatment, 4 day holiday)"}, "[3]": {"conditions": "5 cycles (3 days treatment, 4 day holiday)"}},
  "note": "Marks after values point to notes of the source that are not given here.",
  "data": [
    {"smiles": "NC(=O)c1cnc(N[C@H](C2CC2)C(F)(F)F)c2c1[nH]c1cc(-c3cnc(N)nc3)ccc12", "note": "[MRLB-11055]", "values": [
      {"measurement": "Decrease of splenic B220+ B-cells", "setting": "spleen cell populations; [1]", "value": 2, "unit": "fold"},
      {"measurement": "Decrease of splenic NK1.1+ cells", "setting": "spleen cell populations; [1]", "value": 25, "unit": "fold"},
      {"measurement": "Reduction of any of the splenic lymphocytes tested", "setting": "spleen cell populations; intermittent dosing, 5 cycles of 3 days on and 4 days off", "value": "≤ 2", "unit": "fold"},
      {"measurement": "Spleen B-Cells B220+", "setting": "spleen cell populations; [2]", "value": "30.9 ± 2.2 X10^6"},
      {"measurement": "Spleen Cell Count", "setting": "spleen cell populations; [2]", "value": "53.2 ± 1.2 X10^6"},
      {"measurement": "Spleen Myeloid Gr-1+ CD11b+", "setting": "spleen cell populations; [2]", "value": "0.67 ± 0.17 X10^6"},
      {"measurement": "Spleen NK-Cells NK1.1+ NKG2D+", "setting": "spleen cell populations; [2]", "value": "1.2 ± 0.2* X10^6"},
      {"measurement": "Spleen T-Cells CD4+", "setting": "spleen cell populations; [2]", "value": "6.5 ± 1.0* X10^6"},
      {"measurement": "Spleen T-Cells CD8+", "setting": "spleen cell populations; [2]", "value": "4.0 ± 0.4* X10^6"},
      {"measurement": "Spleen T-Cells Tregs CD25+CD127^lo", "setting": "spleen cell populations; [2]", "value": "0.4 ± 0.1 * X10^6"},
      {"measurement": "Spleen Weight", "setting": "spleen cell populations; [2]", "value": "76.3 ± 4.7", "unit": "mg"},
      {"measurement": "Spleen B-Cells B220+", "setting": "spleen cell populations; [3]", "value": "31.2 ± 6.9 X10^6"},
      {"measurement": "Spleen B-Cells MZ-B-cells CD21^hiCD23^lo", "setting": "spleen cell populations; [3]", "value": "1.7 ± 0.4* X10^6"},
      {"measurement": "Spleen Cell Count", "setting": "spleen cell populations; [3]", "value": "59.4 ± 20.3 X10^6"},
      {"measurement": "Spleen Myeloid Gr-1+ CD11b+", "setting": "spleen cell populations; [3]", "value": "1.05 ± 0.76 X10^6"},
      {"measurement": "Spleen NK-Cells NK1.1+ NKG2D+", "setting": "spleen cell populations; [3]", "value": "0.9 ± 0.3* X10^6"},
      {"measurement": "Spleen T-Cells CD4+", "setting": "spleen cell populations; [3]", "value": "7.9 ± 1.9* X10^6"},
      {"measurement": "Spleen T-Cells CD8+", "setting": "spleen cell populations; [3]", "value": "4.9 ± 1.1* X10^6"},
      {"measurement": "Spleen T-Cells Tregs CD25+CD127^lo", "setting": "spleen cell populations; [3]", "value": "0.6 ± 0.2* X10^6"},
      {"measurement": "Spleen Weight", "setting": "spleen cell populations; [3]", "value": "92.5 ± 29.8", "unit": "mg"},
      {"measurement": "Spleen B-Cells B220+", "setting": "spleen cell populations; 3 days", "value": "24.2 ± 6.2* X10^6"},
      {"measurement": "Spleen B-Cells MZ-B-cells CD21^hiCD23^lo", "setting": "spleen cell populations; 3 days", "value": "0.2 ± 0.2* X10^6"},
      {"measurement": "Spleen Cell Count", "setting": "spleen cell populations; 3 days", "value": "36.2 ± 8.7* X10^6"},
      {"measurement": "Spleen Myeloid Gr-1+ CD11b+", "setting": "spleen cell populations; 3 days", "value": "0.25 ± 0.13* X10^6"},
      {"measurement": "Spleen NK-Cells NK1.1+ NKG2D+", "setting": "spleen cell populations; 3 days", "value": "0.10 ± 0.03* X10^6"},
      {"measurement": "Spleen T-Cells CD4+", "setting": "spleen cell populations; 3 days", "value": "4.9 ± 0.8* X10^6"},
      {"measurement": "Spleen T-Cells CD8+", "setting": "spleen cell populations; 3 days", "value": "4.7 ± 1.1* X10^6"},
      {"measurement": "Spleen T-Cells Tregs CD25+CD127^lo", "setting": "spleen cell populations; 3 days", "value": "0.3 ± 0.1* X10^6"},
      {"measurement": "Spleen Weight", "setting": "spleen cell populations; 3 days", "value": "50.5 ± 4.4* mg"},
      {"measurement": "Spleen B-Cells B220+", "setting": "spleen cell populations; 6 days", "value": "16.9 ± 8.7* X10^6"},
      {"measurement": "Spleen B-Cells MZ-B-cells CD21^hiCD23^lo", "setting": "spleen cell populations; 6 days", "value": "0.2 ± 0.2* X10^6"},
      {"measurement": "Spleen Cell Count", "setting": "spleen cell populations; 6 days", "value": "26.5 ± 3.1* X10^6"},
      {"measurement": "Spleen Myeloid Gr-1+ CD11b+", "setting": "spleen cell populations; 6 days", "value": "0.22 ± 0.09* X10^6"},
      {"measurement": "Spleen NK-Cells NK1.1+ NKG2D+", "setting": "spleen cell populations; 6 days", "value": "0.07 ± 0.04* X10^6"},
      {"measurement": "Spleen T-Cells CD4+", "setting": "spleen cell populations; 6 days", "value": "4.1 ± 1.7* X10^6"},
      {"measurement": "Spleen T-Cells CD8+", "setting": "spleen cell populations; 6 days", "value": "3.2 ± 1.5* X10^6"},
      {"measurement": "Spleen T-Cells Tregs CD25+CD127^lo", "setting": "spleen cell populations; 6 days", "value": "0.2 ± 0.1* X10^6"},
      {"measurement": "Spleen Weight", "setting": "spleen cell populations; 6 days", "value": "45.8 ± 7.6* mg"},
      {"measurement": "Fold-Shift /JAK2, Arg", "setting": "Arg", "value": 17, "unit": "fold"},
      {"measurement": "EC50", "setting": "BaF3 (JAK2 WT) cells", "value": 260, "unit": "nM"},
      {"measurement": "EC50", "setting": "BaF3 (JAK2 V617F) cells", "value": 135, "unit": "nM"},
      {"measurement": "Manner of inhibition of the JH1 kinase domain", "setting": "JAK2 (JH1) WT; data not shown", "value": "ATP-competitive"},
      {"measurement": "IC50", "setting": "JAK2 (JH1) WT; kinase activity, HTRF assay, mean, n = 3, read-out: IC50, cell-free JAK2 (JH1) WT", "value": 0.08, "unit": "nM"},
      {"measurement": "IC50", "setting": "JAK2 (JH1–JH2) WT", "value": 0.78, "unit": "nM"},
      {"measurement": "IC50", "setting": "JAK2 (JH1–JH2) V617F", "value": 0.35, "unit": "nM"},
      {"measurement": "Fold selectivity over JAK2 for 198/220 kinases", "setting": "220 recombinant kinases", "value": ">25-fold over JAK2"}
    ]}
  ]
}
